# Assay results: publication PMC9550643 (iScience, 2022)
# Read-outs that look alike come from different tables or passages of the source.
# Tests used:
# estrogen receptor = settings: ref Kolle et al., 2010; cited from earlier work
# [1] = target: T1, estrogen receptor-α (ERα) (Homo sapiens, UniProt P03372); format: cell-based; settings: iER-GFP cells, 2 h; mixtures as dilution series, chemicals 1 nM to 100 μM
# T1 sequence (P03372 1-595): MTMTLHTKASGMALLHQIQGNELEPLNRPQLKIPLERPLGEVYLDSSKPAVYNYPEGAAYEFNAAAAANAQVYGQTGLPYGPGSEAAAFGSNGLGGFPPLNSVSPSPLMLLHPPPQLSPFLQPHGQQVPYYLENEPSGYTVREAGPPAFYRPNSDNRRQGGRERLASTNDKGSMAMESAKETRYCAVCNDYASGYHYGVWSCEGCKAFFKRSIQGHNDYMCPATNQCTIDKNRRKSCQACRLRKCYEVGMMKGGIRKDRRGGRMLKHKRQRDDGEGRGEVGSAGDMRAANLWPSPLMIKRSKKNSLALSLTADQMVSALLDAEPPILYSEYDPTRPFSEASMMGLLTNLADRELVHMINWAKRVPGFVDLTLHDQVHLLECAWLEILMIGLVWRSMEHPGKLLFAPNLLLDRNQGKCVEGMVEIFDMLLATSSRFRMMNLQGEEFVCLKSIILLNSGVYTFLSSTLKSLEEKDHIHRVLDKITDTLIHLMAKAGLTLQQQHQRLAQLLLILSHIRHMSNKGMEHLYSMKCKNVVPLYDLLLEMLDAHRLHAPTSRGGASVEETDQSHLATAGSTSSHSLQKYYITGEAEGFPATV
# dsRed2skl mRNA = format: cell-based, Human; settings: 2 h
# [2] = tested on: SRC-1, SRC-3, and phosphorylated RNA Pol II (serine 5); assay: Immunofluorescence of co-activator and RNA Pol II recruitment to the PRL-array; format: cell-based, Human; settings: GFP-ER and iER-GFP cells, 10 nM, 2 h
compound,measurement,setting,value
CC(=O)[C@H]1CC[C@H]2[C@@H]3CCC4=CC(=O)CC[C@]4(C)[C@H]3CC[C@]12C [Progesterone],activity in yeast-based estrogenic assays,estrogen receptor,(anti-)estrogenic activity
C[C@]12C[C@H](O)[C@H]3[C@@H](CCC4=CC(=O)CC[C@@]43C)[C@@H]1CC[C@@H]2C(=O)CO [Corticosterone],activity in yeast-based estrogenic assays,estrogen receptor,(anti-)estrogenic activity
COc1ccc(C(c2ccc(OC)cc2)C(Cl)(Cl)Cl)cc1 [Methoxychlor],chromatin binding activity (AUC) as share of the activity observed with E2,[1],at least 10%
OC(c1ccc(Cl)cc1)(c1ccc(Cl)cc1)C(Cl)(Cl)Cl [Dicofol],chromatin binding activity (AUC) as share of the activity observed with E2,[1],at least 10%
"Clc1ccc(C(c2ccccc2Cl)C(Cl)(Cl)Cl)cc1 (centres unmarked) [o,p'-DDT]",chromatin binding activity (AUC) as share of the activity observed with E2,[1],at least 10%
O=S1OCC2C(CO1)C1(Cl)C(Cl)=C(Cl)C2(Cl)C1(Cl)Cl (centres unmarked) [endosulfan],chromatin binding activity (AUC) as share of the activity observed with E2,[1],at least 10%
"C[C@]12CC[C@@H]3c4ccc(O)cc4CC[C@H]3[C@@H]1CC[C@@H]2O [E2, 17β-estradiol]","dsRed2skl FISH signal, increase above untreated",dsRed2skl mRNA; GFP-ER cells,3.2 fold
same,maximal induced dsRed2skl FISH signal,dsRed2skl mRNA; GFP-ER cells,"39,685 ± 2338 IU"
same,"dsRed2skl FISH signal, increase above untreated",dsRed2skl mRNA; iER-GFP cells,11.4 fold
same,maximal induced dsRed2skl FISH signal,dsRed2skl mRNA; iER-GFP cells,"234,008 ± 1329 IU"
same,"dsRed2skl FISH signal, increase above untreated",dsRed2skl mRNA; iGFP-ER cells,5.0 fold
same,maximal induced dsRed2skl FISH signal,dsRed2skl mRNA; iGFP-ER cells,"84,564 ± 628 IU"
same,recruitment of SRC-3 to the PRL-array,[2],strong recruitment
CCOP(=S)(OCC)SCSP(=S)(OCC)OCC [ethion],chromatin binding activity (AUC) as share of the activity observed with E2,[1],at least 10%
